The experiment relates to BDF1 mice, P388 leukemia ip, median survival T/C. Briefly: NCI In Vivo Anticancer Drug Screen. Data for tumor model P388 Leukemia (intraperitoneal) in B6D2F1 (BDF1) mice. The following applies: endpoint: median survival time, higher = longer survival. A digest of the protocol: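 Antitumour effect was judged in vivo: survival in drug-treated mice, normalised to that of vehicle-dosed controls, gives the reported T/C.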

The mark [1] stands for this setting: dose: 50.0 mg/kg/injection, schedule: Q01DX009 (ip), vehicle: saline.
Setting [2] is: dose: 100.0 mg/kg/injection, schedule: Q04DX003 (ip), vehicle: saline.
Setting [3] is: dose: 100.0 mg/kg/injection, schedule: Q04DX003 (ip), vehicle: Klucel (hydroxypropylcellulose) (HPC).
Setting [4] is: dose: 200.0 mg/kg/injection, schedule: Q04DX003 (ip), vehicle: Klucel (hydroxypropylcellulose) (HPC).
Setting [5] is: dose: 100.0 mg/kg/injection, schedule: Q04DX003 (ip), vehicle: saline with Tween-80.
Setting [6] is: dose: 200.0 mg/kg/injection, schedule: Q04DX003 (ip), vehicle: saline with Tween-80.
[7] abbreviates: dose: 400.0 mg/kg/injection, schedule: Q04DX003 (ip), vehicle: saline with Tween-80.

Several values for one entry are separate records, joined by “and”; a condition that tells them apart may be missing. Equal values may be shown once. Toxic doses and inconclusive results are not listed.

As for `O=[N+]([O-])/C=C/c1ccccc1Cl`, the T/C runs as follows: (dose: 2.2 mg/kg/injection, schedule: Q01DX009 (ip), vehicle: other) 110 % of control; (dose: 3.3 mg/kg/injection, schedule: Q01DX009 (ip), vehicle: other) 119 % of control; (dose: 5.0 mg/kg/injection, schedule: Q01DX009 (ip), vehicle: other) 122 % of control; (dose: 6.6 mg/kg/injection, schedule: Q04DX003 (ip), vehicle: other) 109 % of control; (dose: 7.5 mg/kg/injection, schedule: Q01DX009 (ip), vehicle: other) 115 % of control; (dose: 10.0 mg/kg/injection, schedule: Q04DX003 (ip), vehicle: other) 104 % of control. In addition, the T/C reads like this: (dose: 37.5 mg/kg/injection, schedule: Q01DX009 (sc), vehicle: olive oil, sesame oil, peanut oil) 100 % of control; (dose: 37.5 mg/kg/injection, schedule: Q04DX003 (sc), vehicle: olive oil, sesame oil, peanut oil) 95 % of control; (dose: 75.0 mg/kg/injection, schedule: Q01DX009 (sc), vehicle: olive oil, sesame oil, peanut oil) 109 % of control; (dose: 75.0 mg/kg/injection, schedule: Q04DX003 (sc), vehicle: olive oil, sesame oil, peanut oil) 90 % of control; (dose: 150.0 mg/kg/injection, schedule: Q01DX009 (sc), vehicle: olive oil, sesame oil, peanut oil) 100 % of control; (dose: 150.0 mg/kg/injection, schedule: Q04DX003 (sc), vehicle: olive oil, sesame oil, peanut oil) 104 % of control.
For `CC[C@@H]1C[C@H]2CC3c4[nH]c5ccc(O)cc5c4CCN(C2)C31`, the T/C (dose: 25.0 mg/kg/injection, schedule: Q01DX001 (ip), vehicle: saline with Tween-80) is 106 % of control; the T/C (dose: 50.0 mg/kg/injection, schedule: Q01DX001 (ip), vehicle: saline with Tween-80) was 104 % of control; the T/C (dose: 100.0 mg/kg/injection, schedule: Q01DX001 (ip), vehicle: saline with Tween-80) is 108 % of control.
As for `CC12CCC(C(N)C1=O)C2(C)C` (stereo unspecified), the T/C was 107 % of control under setting [1]; 114 % of control (dose: 100.0 mg/kg/injection, schedule: Q01DX009 (ip), vehicle: saline); 101 % of control under setting [2]; 86 % of control (dose: 200.0 mg/kg/injection, schedule: Q01DX009 (ip), vehicle: saline); 104 % of control (dose: 200.0 mg/kg/injection, schedule: Q04DX003 (ip), vehicle: saline).
As to `O=C(c1c(F)c(F)c(F)c(F)c1F)N1CC1`, the T/C (dose: 25.0 mg/kg/injection, schedule: Q01DX009 (ip), vehicle: water) was 106 % of control; the T/C (dose: 25.0 mg/kg/injection, schedule: Q04DX003 (ip), vehicle: water) was 104 % of control; the T/C (dose: 50.0 mg/kg/injection, schedule: Q01DX009 (ip), vehicle: water) was 111 % of control; the T/C (dose: 50.0 mg/kg/injection, schedule: Q04DX003 (ip), vehicle: water) is 91 % of control; the T/C (dose: 100.0 mg/kg/injection, schedule: Q01DX009 (ip), vehicle: water) was 111 % of control; the T/C (dose: 100.0 mg/kg/injection, schedule: Q04DX003 (ip), vehicle: water) was 106 % of control. The T/C runs as follows: (dose: 200.0 mg/kg/injection, schedule: Q01DX009 (ip), vehicle: water) 97 % of control; (dose: 200.0 mg/kg/injection, schedule: Q04DX003 (ip), vehicle: water) 106 % of control; (dose: 400.0 mg/kg/injection, schedule: Q01DX009 (ip), vehicle: water) 100 % of control; (dose: 400.0 mg/kg/injection, schedule: Q04DX003 (ip), vehicle: water) 100 % of control.
With `CN(C)CCC(=O)c1ccc(Cl)cc1`, the T/C (dose: 18.8 mg/kg/injection, schedule: Q01DX009 (ip), vehicle: saline with Tween-80) was 96 % of control; the T/C (dose: 37.5 mg/kg/injection, schedule: Q01DX009 (ip), vehicle: saline with Tween-80) is 93 % of control; the T/C (dose: 75.0 mg/kg/injection, schedule: Q01DX009 (ip), vehicle: saline with Tween-80) is 113 % of control.
As to `CCCCCCCCCCC(=O)OCC#CC#CCOC(=O)CCCCCCCCCC`, the T/C was 104 % of control under setting [3]; 104 % of control under setting [4]; 100 % of control (dose: 400.0 mg/kg/injection, schedule: Q04DX003 (ip), vehicle: Klucel (hydroxypropylcellulose) (HPC)).
As for `O=C(O)c1ccc2c3c(cccc13)CC2`, the T/C was 100 % of control (dose: 25.0 mg/kg/injection, schedule: Q01DX001 (ip), vehicle: saline sonified); 100 % of control (dose: 50.0 mg/kg/injection, schedule: Q01DX001 (ip), vehicle: saline sonified); 104 % of control (dose: 100.0 mg/kg/injection, schedule: Q01DX001 (ip), vehicle: saline sonified).
For `COC(=O)C(C(=O)OC)=C1CS(=O)(=O)C1`, the T/C is 94 % of control (dose: 100.0 mg/kg/injection, schedule: Q04DX002 (ip), vehicle: saline with Tween-80); 101 % of control (dose: 200.0 mg/kg/injection, schedule: Q04DX002 (ip), vehicle: saline with Tween-80); 102 % of control (dose: 400.0 mg/kg/injection, schedule: Q04DX002 (ip), vehicle: saline with Tween-80).
For `CCOC(=O)/C(C#N)=C/c1cc2c3c(c1)CCCN3CCC2`, the T/C reads like this: under setting [5], 90 % of control; under setting [6], 90 % of control; under setting [7], 86 % of control.
With `c1ccc2sc(SSN3CC4CCC(CC4)C3)nc2c1`, under “dose: 50.0 mg/kg/injection, schedule: Q01DX009 (ip), vehicle: saline with Tween-80”, the T/C is 102 % of control and 122 % of control.
With `CCOC(=O)CCC(C(=O)OCC)C(=O)OCC`, the T/C reads like this: (dose: 100.0 mg/kg/injection, schedule: Q01DX009 (ip), vehicle: saline with Tween-80) 107 % of control; under setting [5], 91 % of control; (dose: 200.0 mg/kg/injection, schedule: Q01DX009 (ip), vehicle: saline with Tween-80) 100 % of control; under setting [6], 100 % of control; (dose: 400.0 mg/kg/injection, schedule: Q01DX009 (ip), vehicle: saline with Tween-80) 92 % of control; under setting [7], 95 % of control.
For the molecule `COC1=C(C)C(=O)C2=C(C1=O)C1C3CC4=C(C(=O)C(OC)=C(C)C4=O)C(CNC(=O)C(C)=O)N3C(C#N)C(C2)N1C` (stereo unspecified), the T/C is, setting by setting: (dose: 0.31 mg/kg/injection, schedule: Q01DX009 (ip), vehicle: Klucel (hydroxypropylcellulose) (HPC)) 151 % of control; (dose: 0.62 mg/kg/injection, schedule: Q01DX009 (ip), vehicle: Klucel (hydroxypropylcellulose) (HPC)) 183 % of control; (dose: 1.25 mg/kg/injection, schedule: Q01DX009 (ip), vehicle: Klucel (hydroxypropylcellulose) (HPC)) 159 % of control.
For `Cc1ccc(Nc2nnc(N=Nc3ccccc3)s2)cc1C`, the T/C (dose: 100.0 mg/kg/injection, schedule: Q01DX001 (ip), vehicle: Klucel (hydroxypropylcellulose) (HPC)) was 100 % of control; the T/C (dose: 200.0 mg/kg/injection, schedule: Q01DX001 (ip), vehicle: Klucel (hydroxypropylcellulose) (HPC)) is 90 % of control; the T/C (dose: 400.0 mg/kg/injection, schedule: Q01DX001 (ip), vehicle: Klucel (hydroxypropylcellulose) (HPC)) is 100 % of control.
Consider `CC[n+]1ccc2cc(OC)c(OC)cc2c1Cc1ccc(OC)c(OC)c1`, for which the T/C was 109 % of control (dose: 25.0 mg/kg/injection, schedule: Q01DX009 (ip), vehicle: saline); 118 % of control under setting [1]; 90 % of control (dose: 50.0 mg/kg/injection, schedule: Q04DX003 (ip), vehicle: saline); 104 % of control under setting [2].
In the case of `O=[As]c1ccc(Br)cc1` (stereo unspecified), the T/C runs as follows: (dose: 0.5 mg/kg/injection, schedule: Q01DX009 (ip), vehicle: Klucel (hydroxypropylcellulose) (HPC)) 104 % of control; (dose: 1.0 mg/kg/injection, schedule: Q01DX009 (ip), vehicle: Klucel (hydroxypropylcellulose) (HPC)) 104 % of control; (dose: 2.0 mg/kg/injection, schedule: Q01DX009 (ip), vehicle: Klucel (hydroxypropylcellulose) (HPC)) 104 % of control.
Turning to `N=C(N)SCCC(=O)O`, the T/C by setting is: (dose: 50.0 mg/kg/injection, schedule: Q04DX003 (ip), vehicle: Klucel (hydroxypropylcellulose) (HPC)) 109 % of control; (dose: 100.0 mg/kg/injection, schedule: Q01DX009 (ip), vehicle: Klucel (hydroxypropylcellulose) (HPC)) 100 % of control; under setting [3], 100 % of control; (dose: 200.0 mg/kg/injection, schedule: Q01DX009 (ip), vehicle: Klucel (hydroxypropylcellulose) (HPC)) 110 % of control; under setting [4], 109 % of control; (dose: 400.0 mg/kg/injection, schedule: Q01DX009 (ip), vehicle: Klucel (hydroxypropylcellulose) (HPC)) 90 % of control.

For the origin of these results see PubChem BioAssay AID328 (DTP/NCI, 2004).
